According to patent US12624067B2, “Cyclic peptide, cell scaffold material, cell separating material, and medium” (FUJIFILM Corporation, priority 2019, dated 2026):
Numbered stars: 1 amine (or outer) side, 2 acyl side, 3 side chain; on linkers, the order of the positions; unused ones are H or OH. Bridge positions count the residues as written; N and C are the ends. Square brackets hold non-standard residues; d marks the D form. Peptide text beside a SMILES is read from it. Pen = CC(C)(S)[C@H](N)C(=O)O; hCys = N[C@@H](CCS)C(=O)O; Orn = NCCC[C@H](N)C(=O)O; X1 = O=C(C[*:1])[*:2]; X2 = O=C(C[*:2])[*:1]

Key:
[1] = Evaluation of molecule stability (alkali treatment, LC/MS residual rate); type: physicochemical; conditions: 500 μM peptide plus equivalent of 1 M sodium hydroxide, 15° C., 20 minutes, LC/MS peak area
Protocol: The molecule stability of the cyclic peptide was evaluated by analyzing the alkali-treated cyclic peptide aqueous solution by liquid chromatography mass spectroscopy (LC/MS).
The alkali treatment was carried out by the following method. A 500 μM cyclic peptide aqueous solution was prepared, an equivalent of 1 M sodium hydroxide aqueous solution was added to this aqueous solution, and the resultant mixture was incubated at 15° C. for 20 minutes to obtain an alkali-treated cyclic peptide aqueous solution. The cyclic peptide residual rate was calculated by setting the total area of all peaks of the cyclic peptide before alkali treatment in LC/MS to 100% and determining the proportion of the total area of all peaks in LC/MS of the alkali-treated cyclic peptide aqueous solution, and the molecule stability was evaluated according to the following evaluation standards. It is preferable that the evaluation result satisfies the evaluation standard A, B, or C.
The conditions of the LC/MS used for the evaluation of molecule stability were set as follows. • LC apparatus: Prominence series (pump, column oven, autosampler, detector) (manufactured by Shimadzu Corporation) • MS detector: LC/MS2010EV (manufactured by Shimadzu Corporation) • Column: Cadenza CD-C18, inner diameter 2.0 mm×length 250 mm, particle size: 3 μm (manufactured by Imtakt Corporation) • Eluent A: a solution (pH 3) containing 10 mM ammonium formate as a solute, where the solvent is 100% water. • Eluent B: a solution (pH 3) containing 10 mM ammonium formate as a solute, where the solvent is acetonitrile/water=90/10. • Flow rate: 0.2 mL/min • Injection volume: 4 μL • Gradient: 0% to 30%: Eluent B (0 to 30 minutes), 100%: Eluent B (30 to 40 minutes), 0%: Eluent B (40 to 60 minutes)(B indicates the eluent B) • Column temperature: 45° C. • Ionization method: electrospray ionization (ESI) positive, ESI negative

human integrin αvβ5 = human integrin αvβ5 (Homo sapiens, UniProt P06756+P18084); assay: Evaluation of integrin binding property (surface plasmon resonance, Biacore 3000, immobilized cyclic peptide); conditions: peptide immobilized on CM5 sensor chip; human integrin αvβ5 30-1,000 nM, 25° C., HEPES buffer with 5 mM magnesium chloride; read-out: Integrin binding property (dissociation constant)
Protocol: A commercially available CM5 sensor chip (a carboxymethyl dextran introduction type, manufactured by GE Healthcare) was set in a surface plasmon resonance apparatus (product name: Biacore 3000, manufactured by GE Healthcare), the sensor was stabilized at a flow rate of 10 μL/min of a 4-(2-hydroxyethyl)-1-piperazineethanesulfonic acid (HEPES) buffer solution (20 mM HEPES-HCl, 150 mM NaCl, pH 7.4) for surface plasmon resonance (SPR), and 70 μL of a mixed aqueous solution of 0.2 M 1-(3-dimethylaminopropyl)-3-ethylcarbodiimide (EDC) and 0.04 M N-hydroxysuccinimide (NHS) was added thereto. Then, 300 μL of the sample solution of each of the above cyclic peptides diluted to 0.2 g/L with the HEPES buffer solution was supplied to the sensor chip, blocking treatment was subsequently carried out with an ethanolamine solution, and washing was carried out with a sodium hydroxide aqueous solution, whereby immobilization was carried out. However, only for the cyclic peptide 22, in which the number of lysine residues having an amino group as the immobilizing functional group was 1, the sample solution to be supplied to the sensor chip was set to 5,000 μL instead of 300 μL. Similarly; 70 μL of the mixed aqueous solution of 0.2 M EDC and 0.04 M NHS was added to another flow channel of the same sensor chip without immobilizing the sample, and then blocking treatment and washing treatment were carried out. Hereinafter, the obtained immobilization-treated sensor chip is referred to as an “immobilization-treated sensor chip A”.
After adding human integrin αvβ5 for 10 minutes at 25° C., which was diluted to 30 nM using a HEPES buffer solution to which magnesium chloride was added to 5 mM, in each flow channel of the immobilization-treated sensor chip A prepared in (1) above, the same HEPES buffer solution (containing 5 mM magnesium chloride) was allowed to flow as a running buffer for 30 minutes, and measurement was carried out with Biacore 3000.
Then, a regeneration treatment of removing human integrin αvβ5 was carried out by allowing a 0.5 M EDTA aqueous solution to flow through each flow channel for 10 minutes. Further, the above-described measurement process consisting of adding integrin for 10 minutes, allowing a running buffer to flow for 30 minutes, carrying out measurement with Biacore 3000, and carrying out regeneration treatment with 0.5 M EDTA aqueous solution was carried out in the same manner for 100 nM human integrin αvβ5, 300 nM human integrin αvβ5, and 1,000 nM human integrin αvβ5. Dissociation constant between the cyclic peptide and human integrin αvβ5 was calculated from the difference between the value measured by Biacore 3000 in the flow channel immobilized with the cyclic peptide and the value measured by Biacore 3000 in the flow channel unimmobilized with the cyclic peptide, in a case where each concentration of human integrin αvβ5 was allowed to flow; and the integrin binding property was evaluated according to the following evaluation standards. It is preferable that the evaluation result satisfies the evaluation standard A, B, or C.

human integrin αvβ5, sequence (P06756 31-889 limits assumed): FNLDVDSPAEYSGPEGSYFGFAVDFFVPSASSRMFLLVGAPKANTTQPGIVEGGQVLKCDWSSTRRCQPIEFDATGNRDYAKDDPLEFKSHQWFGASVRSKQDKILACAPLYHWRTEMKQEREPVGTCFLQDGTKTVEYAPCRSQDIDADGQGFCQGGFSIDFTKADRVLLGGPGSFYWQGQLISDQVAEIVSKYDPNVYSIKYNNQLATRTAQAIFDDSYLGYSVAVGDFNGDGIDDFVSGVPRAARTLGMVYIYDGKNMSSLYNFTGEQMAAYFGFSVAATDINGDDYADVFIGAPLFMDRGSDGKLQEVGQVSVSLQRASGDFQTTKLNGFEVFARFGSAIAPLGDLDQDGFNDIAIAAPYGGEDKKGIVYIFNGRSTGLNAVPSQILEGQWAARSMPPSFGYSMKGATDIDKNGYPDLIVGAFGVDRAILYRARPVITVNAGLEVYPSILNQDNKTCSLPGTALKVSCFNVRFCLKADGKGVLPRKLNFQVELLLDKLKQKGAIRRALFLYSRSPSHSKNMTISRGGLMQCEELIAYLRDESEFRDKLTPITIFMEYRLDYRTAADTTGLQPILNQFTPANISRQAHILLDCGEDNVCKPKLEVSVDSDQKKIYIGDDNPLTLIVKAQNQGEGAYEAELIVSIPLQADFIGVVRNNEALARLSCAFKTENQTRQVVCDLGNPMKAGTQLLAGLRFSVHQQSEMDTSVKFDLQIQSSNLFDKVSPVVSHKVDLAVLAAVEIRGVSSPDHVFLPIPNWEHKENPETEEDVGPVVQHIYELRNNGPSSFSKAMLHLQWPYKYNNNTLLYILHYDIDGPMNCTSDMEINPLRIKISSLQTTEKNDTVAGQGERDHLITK
human integrin αvβ5, sequence (P06756 891-1048 partner limits assumed): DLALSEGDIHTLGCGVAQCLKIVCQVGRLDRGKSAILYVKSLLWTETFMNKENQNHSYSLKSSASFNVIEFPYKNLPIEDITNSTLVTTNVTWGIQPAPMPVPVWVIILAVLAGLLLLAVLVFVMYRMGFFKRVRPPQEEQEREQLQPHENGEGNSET
human integrin αvβ5, sequence (P18084 24-799): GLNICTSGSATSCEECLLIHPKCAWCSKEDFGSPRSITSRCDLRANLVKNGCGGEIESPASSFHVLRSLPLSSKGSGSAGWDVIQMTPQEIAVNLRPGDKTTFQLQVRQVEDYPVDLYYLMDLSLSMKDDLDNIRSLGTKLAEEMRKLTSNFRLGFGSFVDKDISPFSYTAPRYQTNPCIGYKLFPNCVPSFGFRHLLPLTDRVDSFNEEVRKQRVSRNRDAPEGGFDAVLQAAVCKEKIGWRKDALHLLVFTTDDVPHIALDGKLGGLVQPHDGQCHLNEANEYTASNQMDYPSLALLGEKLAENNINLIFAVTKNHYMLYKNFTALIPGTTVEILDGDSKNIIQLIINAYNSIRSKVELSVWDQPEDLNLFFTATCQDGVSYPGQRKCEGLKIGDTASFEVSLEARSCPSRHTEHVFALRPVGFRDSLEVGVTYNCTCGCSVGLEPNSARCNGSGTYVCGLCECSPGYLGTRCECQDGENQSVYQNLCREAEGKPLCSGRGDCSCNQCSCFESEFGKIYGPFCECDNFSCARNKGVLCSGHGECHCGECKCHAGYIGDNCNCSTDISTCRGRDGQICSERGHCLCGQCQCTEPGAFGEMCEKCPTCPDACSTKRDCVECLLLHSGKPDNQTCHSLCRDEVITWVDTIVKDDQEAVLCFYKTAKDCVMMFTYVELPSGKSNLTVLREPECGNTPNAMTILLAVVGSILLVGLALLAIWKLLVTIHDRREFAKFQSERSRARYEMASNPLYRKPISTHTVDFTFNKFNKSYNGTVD

Structure (SMILES) | Kd (human integrin αvβ5) [nM] | Molecule stability (cyclic peptide residual rate) [1]
CC1(C)SCC(=O)N[C@@H](CCC(=O)O)C(=O)N[C@H]2CCCNC(=O)CSCC[C@H](NC(=O)[C@H](CC(=O)O)NC(=O)CNC(=O)[C@H](CCCNC(=N)N)NC2=O)C(=O)N[C@@H](Cc2ccccc2)C(=O)N[C@@H]1C(=O)N[C@@H](CCCCN)C(=O)N[C@@H](CCCCN)C(=O)N[C@@H](CCCCN)C(=O)O [Cyclic peptide 24] ({CH2CO}-E[Orn]RGD[hCys]F[Pen]KKK-OH; linker 2-6 via X2; thioether N-8) | < 50 | A (The residual rate of the cyclic peptide is 70% or more.)
N=C(N)NCCC[C@@H]1NC(=O)[C@@H]2CCSCC(=O)NCCCC[C@H](NC(=O)[C@H](CC(=O)O)NC(=O)CNC1=O)C(=O)N[C@@H](Cc1ccccc1)C(=O)N[C@H](C(=O)N[C@@H](CCCCN)C(=O)N[C@@H](CCCCN)C(=O)N[C@@H](CCCCN)C(=O)O)CCSCC(=O)N[C@@H](Cc1ccc(O)cc1)C(=O)N2 [Cyclic peptide 25] ({CH2CO}-Y[hCys]RGDKF[hCys]KKK-OH; linker 2-6 via X1; thioether N-8) | < 50 | A (The residual rate of the cyclic peptide is 70% or more.)
N=C(N)NCCC[C@@H]1NC(=O)[C@@H]2CCSCC(=O)NCCCC[C@H](NC(=O)[C@H](CC(=O)O)NC(=O)CNC1=O)C(=O)N[C@@H](Cc1ccccc1)C(=O)N[C@H](C(=O)N[C@@H](CCCCN)C(=O)N[C@@H](CCCCN)C(=O)N[C@@H](CCCCN)C(=O)O)CCSCC(=O)N[C@@H](CC(=O)O)C(=O)N2 [Cyclic peptide 29] ({CH2CO}-D[hCys]RGDKF[hCys]KKK-OH; linker 2-6 via X1; thioether N-8) | < 50 | A (The residual rate of the cyclic peptide is 70% or more.)
N=C(N)NCCC[C@@H]1NC(=O)[C@@H]2CCSCC(=O)NCCCC[C@H](NC(=O)[C@H](CC(=O)O)NC(=O)CNC1=O)C(=O)N[C@@H](Cc1ccccc1)C(=O)N[C@H](C(=O)N[C@@H](CCCCN)C(=O)N[C@@H](CCCCN)C(=O)N[C@@H](CCCCN)C(=O)O)CCSCC(=O)N[C@@H](CCC(=O)O)C(=O)N2 [Cyclic peptide 30] ({CH2CO}-E[hCys]RGDKF[hCys]KKK-OH; linker 2-6 via X1; thioether N-8) | < 50 | A (The residual rate of the cyclic peptide is 70% or more.)
CC[C@H](C)[C@@H]1NC(=O)CSCC[C@@H](C(=O)N[C@@H](CCCCN)C(=O)N[C@@H](CCCCN)C(=O)N[C@@H](CCCCN)C(=O)O)NC(=O)[C@@H]2CCCN2C(=O)[C@@H]2CCCCNC(=O)CSCC[C@H](NC1=O)C(=O)N[C@@H](CCCNC(=N)N)C(=O)NCC(=O)N[C@@H](CC(=O)O)C(=O)N2 [Cyclic peptide 31] ({CH2CO}-I[hCys]RGDKP[hCys]KKK-OH; linker 2-6 via X1; thioether N-8) | 50 to 100 | A (The residual rate of the cyclic peptide is 70% or more.)
CC[C@H](C)[C@@H]1NC(=O)CSCC[C@@H](C(=O)N[C@@H](CCCCN)C(=O)N[C@@H](CCCCN)C(=O)N[C@@H](CCCCN)C(=O)O)NC(=O)[C@H](CCCNC(=N)N)NC(=O)[C@H](Cc2ccccc2)NC(=O)[C@@H]2CCCCNC(=O)CSCC[C@H](NC1=O)C(=O)N[C@@H](CCCNC(=N)N)C(=O)NCC(=O)N[C@@H](CC(=O)O)C(=O)N2 [Cyclic peptide 33] ({CH2CO}-I[hCys]RGDKFR[hCys]KKK-OH; linker 2-6 via X1; thioether N-9) | 100 to 200 | A (The residual rate of the cyclic peptide is 70% or more.)

More lines, main results first:

Kd (human integrin αvβ5) [nM] | Structure (SMILES) | Molecule stability (cyclic peptide residual rate) [1]
< 50 | CC(C)C[C@@H]1NC(=O)CSCC[C@@H](C(=O)N[C@@H](CCCCN)C(=O)N[C@@H](CCCCN)C(=O)N[C@@H](CCCCN)C(=O)O)NC(=O)[C@H](Cc2ccccc2)NC(=O)[C@@H]2CCCCNC(=O)CSCC[C@H](NC1=O)C(=O)N[C@@H](CCCNC(=N)N)C(=O)NCC(=O)N[C@@H](CC(=O)O)C(=O)N2 [Cyclic peptide 26] ({CH2CO}-L[hCys]RGDKF[hCys]KKK-OH; linker 2-6 via X1; thioether N-8) | A (The residual rate of the cyclic peptide is 70% or more.)
< 50 | C[C@@H](O)[C@@H]1NC(=O)CSCC[C@@H](C(=O)N[C@@H](CCCCN)C(=O)N[C@@H](CCCCN)C(=O)N[C@@H](CCCCN)C(=O)O)NC(=O)[C@H](Cc2ccccc2)NC(=O)[C@@H]2CCCCNC(=O)CSCC[C@H](NC1=O)C(=O)N[C@@H](CCCNC(=N)N)C(=O)NCC(=O)N[C@@H](CC(=O)O)C(=O)N2 [Cyclic peptide 27] ({CH2CO}-T[hCys]RGDKF[hCys]KKK-OH; linker 2-6 via X1; thioether N-8) | A (The residual rate of the cyclic peptide is 70% or more.)
< 50 | CC(C)[C@@H]1NC(=O)CSCC[C@@H](C(=O)N[C@@H](CCCCN)C(=O)N[C@@H](CCCCN)C(=O)N[C@@H](CCCCN)C(=O)O)NC(=O)[C@H](Cc2ccccc2)NC(=O)[C@@H]2CCCCNC(=O)CSCC[C@H](NC1=O)C(=O)N[C@@H](CCCNC(=N)N)C(=O)NCC(=O)N[C@@H](CC(=O)O)C(=O)N2 [Cyclic peptide 28] ({CH2CO}-V[hCys]RGDKF[hCys]KKK-OH; linker 2-6 via X1; thioether N-8) | A (The residual rate of the cyclic peptide is 70% or more.)
50 to 100 | CC[C@H](C)[C@@H]1NC(=O)CSCC[C@@H](C(=O)N[C@@H](CCCCN)C(=O)N[C@@H](CCCCN)C(=O)N[C@@H](CCCCN)C(=O)O)NC(=O)[C@H](Cc2ccc(O)cc2)NC(=O)[C@@H]2CCCCNC(=O)CSCC[C@H](NC1=O)C(=O)N[C@@H](CCCNC(=N)N)C(=O)NCC(=O)N[C@@H](CC(=O)O)C(=O)N2 [Cyclic peptide 32] ({CH2CO}-I[hCys]RGDKY[hCys]KKK-OH; linker 2-6 via X1; thioether N-8) | A (The residual rate of the cyclic peptide is 70% or more.)
50 to 100 | CC[C@H](C)[C@@H]1NC(=O)CSCC[C@@H](C(=O)N[C@@H](CCCCN)C(=O)N[C@@H](CCCCN)C(=O)N[C@@H](CCCCN)C(=O)O)NC(=O)[C@H](C)NC(=O)[C@H](Cc2ccccc2)NC(=O)[C@@H]2CCCCNC(=O)CSCC[C@H](NC1=O)C(=O)N[C@@H](CCCNC(=N)N)C(=O)NCC(=O)N[C@@H](CC(=O)O)C(=O)N2 [Cyclic peptide 34] ({CH2CO}-I[hCys]RGDKFA[hCys]KKK-OH; linker 2-6 via X1; thioether N-9) | A (The residual rate of the cyclic peptide is 70% or more.)
< 50 | CC[C@H](C)[C@@H]1NC(=O)CSCC[C@@H](C(=O)N[C@@H](C)C(=O)N[C@@H](CCCCN)C(=O)N[C@@H](CCCCN)C(=O)N[C@@H](CCCCN)C(=O)O)NC(=O)[C@H](Cc2ccccc2)NC(=O)[C@@H]2CCCCNC(=O)CSCC[C@H](NC1=O)C(=O)N[C@@H](CCCNC(=N)N)C(=O)NCC(=O)N[C@@H](CC(=O)O)C(=O)N2 [Cyclic peptide 35] ({CH2CO}-I[hCys]RGDKF[hCys]AKKK-OH; linker 2-6 via X1; thioether N-8) | A (The residual rate of the cyclic peptide is 70% or more.)
